In ChEMBL document CHEMBL4330132, “5-Keto-3-cyano-2,4-diaminothiophenes as selective maternal embryonic leucine zipper kinase inhibitors” (Bioorg Med Chem Lett, 2019):

Assays:
[1] = target: Activin receptor type-1B (Homo sapiens) (UniProt P36896); test: Binding affinity to wild-type human ACVR1B (S187 to I505 residues) expressed in bacterial expression system assessed as residual binding level at 1 uM by Kinomescan method relative to control
[2] = target: Atypical kinase COQ8B, mitochondrial (Homo sapiens) (UniProt Q96D53); test: Binding affinity to wild-type human full length ADCK4 (M1 to S544 residues) expressed in bacterial expression system assessed as residual binding level at 1 uM by Kinomescan method relative to control
[3] = target: RAC-gamma serine/threonine-protein kinase (Homo sapiens) (UniProt Q9Y243); test: Binding affinity to wild-type human partial length AKT3 expressed in bacterial expression system assessed as residual binding level at 1 uM by Kinomescan method relative to control
[4] = target: Calcium/calmodulin-dependent protein kinase type 1G (Homo sapiens) (UniProt Q96NX5); test: Binding affinity to wild-type human partial length CAMK1G (M1 to A342 residues) expressed in bacterial expression system assessed as residual binding level at 1 uM by Kinomescan method relative to control
[5] = target: Ephrin type-A receptor 3 (Homo sapiens) (UniProt P29320); test: Binding affinity to wild-type human partial length EPHA3 (D604 to K889 residues) expressed in bacterial expression system assessed as residual binding level at 1 uM by Kinomescan method relative to control
[6] = target: Ephrin type-B receptor 1 (Homo sapiens) (UniProt P54762); test: Binding affinity to wild-type human partial length EPHB1 (P589 to T911 residues) expressed in bacterial expression system assessed as residual binding level at 1 uM by Kinomescan method relative to control
[7] = target: Mitogen-activated protein kinase 1 (Homo sapiens) (UniProt P28482); test: Binding affinity to wild-type human full length ERK2 (M1 to S360 residues) expressed in bacterial expression system assessed as residual binding level at 1 uM by Kinomescan method relative to control
[8] = target: Mitogen-activated protein kinase 7 (Homo sapiens) (UniProt Q13164); test: Binding affinity to wild-type human partial length ERK5 (M1 to A409 residues) expressed in bacterial expression system assessed as residual binding level at 1 uM by Kinomescan method relative to control
[9] = system: Fibroblast growth factor receptor 3 (Homo sapiens), P22607 [G697C]; test: Binding affinity to human partial length FGFR3 G697C mutant (R442 to S771 residues) expressed in bacterial expression system assessed as residual binding level at 1 uM by Kinomescan method relative to control
[10] = target: Fibroblast growth factor receptor 4 (Homo sapiens) (UniProt P22455); test: Binding affinity to wild-type human partial length FGFR4 (G402 to E713 residues) expressed in bacterial expression system assessed as residual binding level at 1 uM by Kinomescan method relative to control
[11] = target: Rhodopsin kinase GRK1 (Homo sapiens) (UniProt Q15835); test: Binding affinity to wild-type human full length GRK1 (M1 to S563 residues) expressed in mammalian expression system assessed as residual binding level at 1 uM by Kinomescan method relative to control
[12] = target: Interleukin-1 receptor-associated kinase 4 (Homo sapiens) (UniProt Q9NWZ3); test: Binding affinity to wild-type human partial length IRAK4 (M1 to S460 residues) expressed in mammalian expression system assessed as residual binding level at 1 uM by Kinomescan method relative to control
[13] = target: Tyrosine-protein kinase JAK1 (Homo sapiens) (UniProt P23458); test: Binding affinity to wild-type human partial length JAK1 JH1 catalytic domain (V856 to K1154 residues) expressed in bacterial expression system assessed as residual binding level at 1 uM by Kinomescan method relative to control
[14] = target: Leukocyte tyrosine kinase receptor (Homo sapiens) (UniProt P29376); test: Binding affinity to wild-type human partial length LTK (P422 to S744 residues) expressed in bacterial expression system assessed as residual binding level at 1 uM by Kinomescan method relative to control
[15] = target: Mitogen-activated protein kinase kinase kinase kinase 5 (Homo sapiens) (UniProt Q9Y4K4); test: Binding affinity to wild-type human partial length MAP4K5 (M1 to P297 residues) expressed in bacterial expression system assessed as residual binding level at 1 uM by Kinomescan method relative to control
[16] = target: Serine/threonine-protein kinase MARK2 (Homo sapiens) (UniProt Q7KZI7); test: Binding affinity to wild-type human partial length MARK2 (M1 to R450 residues) expressed in bacterial expression system assessed as residual binding level at 1 uM by Kinomescan method relative to control
[17] = target: Mitogen-activated protein kinase kinase kinase 10 (Homo sapiens) (UniProt Q02779); test: Binding affinity to wild-type human partial length MLK2 (V52 to W380 residues) expressed in bacterial expression system assessed as residual binding level at 1 uM by Kinomescan method relative to control
[18] = target: Serine/threonine-protein kinase 4 (Homo sapiens) (UniProt Q13043); test: Binding affinity to wild-type human full length MST1 (M1 to F487 residues) expressed in bacterial expression system assessed as residual binding level at 1 uM by Kinomescan method relative to control
[19] = target: Myosin light chain kinase 2, skeletal/cardiac muscle (Homo sapiens) (UniProt Q9H1R3); test: Binding affinity to wild-type human partial length MYLK2 (D258 to K570 residues) expressed in bacterial expression system assessed as residual binding level at 1 uM by Kinomescan method relative to control
[20] = target: Serine/threonine-protein kinase PAK 3 (Homo sapiens) (UniProt O75914); test: Binding affinity to wild-type human full length PAK3 (M1 to R544 residues) expressed in bacterial expression system assessed as residual binding level at 1 uM by Kinomescan method relative to control
[21] = target: Cyclin-dependent kinase 15 (Homo sapiens) (UniProt Q96Q40); test: Binding affinity to wild-type human full length PFTAIRE2 (M1 to W384 residues) expressed in bacterial expression system assessed as residual binding level at 1 uM by Kinomescan method relative to control
[22] = system: Phosphatidylinositol 4,5-bisphosphate 3-kinase catalytic subunit alpha isoform (Homo sapiens), P42336 [I800L]; test: Binding affinity to human partial length PIK3CA I800L mutant (R108 to N1068 residues) expressed in mammalian expression system assessed as residual binding level at 1 uM by Kinomescan method relative to control
[23] = target: Serine/threonine-protein kinase PknB (Mycobacterium tuberculosis) (UniProt P9WI81); test: Binding affinity to wild-type Mycobacterium tuberculosis H37Rv partial length PKNB (M1 to G279 residues) expressed in mammalian expression system assessed as residual binding level at 1 uM by Kinomescan method relative to control
[24] = target: Protein kinase C iota type (Homo sapiens) (UniProt P41743); test: Binding affinity to wild-type human partial length PRKCI (H215 to V587 residues) expressed in mammalian expression system assessed as residual binding level at 1 uM by Kinomescan method relative to control
[25] = target: Tyrosine-protein kinase TXK (Homo sapiens) (UniProt P42681); test: Binding affinity to wild-type human partial length TXK (L238 to W527 residues) expressed in bacterial expression system assessed as residual binding level at 1 uM by Kinomescan method relative to control

Chain of Serine/threonine-protein kinase PAK 3 (Homo sapiens) (O75914 whole entry, looked up, the tested form may be a part): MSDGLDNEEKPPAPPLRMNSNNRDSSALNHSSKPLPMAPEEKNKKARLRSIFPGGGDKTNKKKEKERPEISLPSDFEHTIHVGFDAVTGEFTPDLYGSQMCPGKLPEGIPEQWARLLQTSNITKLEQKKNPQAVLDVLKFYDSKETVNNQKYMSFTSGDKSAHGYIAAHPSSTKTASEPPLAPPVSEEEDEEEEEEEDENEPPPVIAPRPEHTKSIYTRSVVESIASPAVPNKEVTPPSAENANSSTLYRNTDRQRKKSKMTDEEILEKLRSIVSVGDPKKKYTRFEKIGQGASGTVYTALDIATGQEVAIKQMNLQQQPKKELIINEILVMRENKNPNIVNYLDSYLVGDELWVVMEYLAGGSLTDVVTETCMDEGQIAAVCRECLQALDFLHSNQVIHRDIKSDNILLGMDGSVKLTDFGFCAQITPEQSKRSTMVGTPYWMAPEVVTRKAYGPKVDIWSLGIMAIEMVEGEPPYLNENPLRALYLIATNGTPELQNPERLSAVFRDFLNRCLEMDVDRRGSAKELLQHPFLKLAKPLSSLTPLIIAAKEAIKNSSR
Chain of Leukocyte tyrosine kinase receptor (Homo sapiens) (P29376 whole entry, the tested form may be a part): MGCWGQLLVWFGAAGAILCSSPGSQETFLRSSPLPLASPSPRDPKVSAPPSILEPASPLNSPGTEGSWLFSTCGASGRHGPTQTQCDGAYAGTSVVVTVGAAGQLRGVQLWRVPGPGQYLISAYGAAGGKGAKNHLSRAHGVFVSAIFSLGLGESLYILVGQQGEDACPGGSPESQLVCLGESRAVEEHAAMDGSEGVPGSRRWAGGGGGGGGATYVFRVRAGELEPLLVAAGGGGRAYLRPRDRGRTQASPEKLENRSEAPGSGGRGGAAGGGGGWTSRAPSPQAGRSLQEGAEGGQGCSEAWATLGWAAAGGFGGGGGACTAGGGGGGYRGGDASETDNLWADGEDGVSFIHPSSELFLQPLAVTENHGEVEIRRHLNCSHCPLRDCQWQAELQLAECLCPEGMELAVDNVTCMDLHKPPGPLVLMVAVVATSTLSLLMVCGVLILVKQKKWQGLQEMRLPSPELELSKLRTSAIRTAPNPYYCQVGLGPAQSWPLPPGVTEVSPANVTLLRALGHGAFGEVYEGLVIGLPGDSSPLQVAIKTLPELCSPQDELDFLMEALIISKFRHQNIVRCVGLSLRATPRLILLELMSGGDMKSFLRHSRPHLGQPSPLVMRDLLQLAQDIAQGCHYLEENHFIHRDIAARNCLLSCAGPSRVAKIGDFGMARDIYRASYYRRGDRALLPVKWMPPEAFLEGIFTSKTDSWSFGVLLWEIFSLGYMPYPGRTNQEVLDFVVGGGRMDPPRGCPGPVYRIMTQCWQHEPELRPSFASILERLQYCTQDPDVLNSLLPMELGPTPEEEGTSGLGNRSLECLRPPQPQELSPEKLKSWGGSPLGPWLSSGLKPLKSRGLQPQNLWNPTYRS
Chain of Cyclin-dependent kinase 15 (Homo sapiens) (Q96Q40 whole entry, the tested form may be a part, canonical isoform): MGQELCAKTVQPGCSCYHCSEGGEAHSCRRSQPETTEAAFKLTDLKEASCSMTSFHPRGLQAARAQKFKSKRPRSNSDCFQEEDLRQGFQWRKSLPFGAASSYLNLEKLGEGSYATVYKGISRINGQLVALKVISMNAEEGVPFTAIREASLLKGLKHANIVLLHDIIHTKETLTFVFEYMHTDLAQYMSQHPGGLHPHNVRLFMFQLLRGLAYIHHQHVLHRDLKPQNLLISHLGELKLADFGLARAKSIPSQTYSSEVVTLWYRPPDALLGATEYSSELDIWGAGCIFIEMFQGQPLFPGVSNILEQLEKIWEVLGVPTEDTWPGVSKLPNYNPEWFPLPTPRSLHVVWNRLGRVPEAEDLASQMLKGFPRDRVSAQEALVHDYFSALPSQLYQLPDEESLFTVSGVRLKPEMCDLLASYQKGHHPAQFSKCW
Chain of Fibroblast growth factor receptor 4 (Homo sapiens) (P22455 22-802 limits assumed): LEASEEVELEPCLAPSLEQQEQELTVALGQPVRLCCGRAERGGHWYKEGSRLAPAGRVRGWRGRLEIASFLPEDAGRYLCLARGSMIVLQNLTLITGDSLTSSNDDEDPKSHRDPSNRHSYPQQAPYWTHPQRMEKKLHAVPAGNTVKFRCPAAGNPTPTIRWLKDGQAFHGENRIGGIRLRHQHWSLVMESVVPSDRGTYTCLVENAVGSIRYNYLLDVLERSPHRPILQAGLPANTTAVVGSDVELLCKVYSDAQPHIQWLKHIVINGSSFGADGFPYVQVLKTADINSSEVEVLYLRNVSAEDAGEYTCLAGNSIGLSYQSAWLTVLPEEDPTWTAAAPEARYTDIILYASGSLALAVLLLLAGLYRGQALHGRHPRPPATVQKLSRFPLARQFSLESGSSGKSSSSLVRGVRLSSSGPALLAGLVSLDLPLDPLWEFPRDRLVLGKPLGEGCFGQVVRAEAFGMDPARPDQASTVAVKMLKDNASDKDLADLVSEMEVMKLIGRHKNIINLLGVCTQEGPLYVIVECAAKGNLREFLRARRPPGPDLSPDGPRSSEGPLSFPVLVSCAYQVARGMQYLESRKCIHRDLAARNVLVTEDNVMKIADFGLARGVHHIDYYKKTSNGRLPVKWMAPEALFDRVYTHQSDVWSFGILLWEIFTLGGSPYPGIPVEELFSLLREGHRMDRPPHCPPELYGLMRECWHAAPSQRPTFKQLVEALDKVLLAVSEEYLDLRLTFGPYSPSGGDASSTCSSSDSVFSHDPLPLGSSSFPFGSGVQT
Chain of Serine/threonine-protein kinase MARK2 (Homo sapiens) (Q7KZI7 whole entry, the tested form may be a part): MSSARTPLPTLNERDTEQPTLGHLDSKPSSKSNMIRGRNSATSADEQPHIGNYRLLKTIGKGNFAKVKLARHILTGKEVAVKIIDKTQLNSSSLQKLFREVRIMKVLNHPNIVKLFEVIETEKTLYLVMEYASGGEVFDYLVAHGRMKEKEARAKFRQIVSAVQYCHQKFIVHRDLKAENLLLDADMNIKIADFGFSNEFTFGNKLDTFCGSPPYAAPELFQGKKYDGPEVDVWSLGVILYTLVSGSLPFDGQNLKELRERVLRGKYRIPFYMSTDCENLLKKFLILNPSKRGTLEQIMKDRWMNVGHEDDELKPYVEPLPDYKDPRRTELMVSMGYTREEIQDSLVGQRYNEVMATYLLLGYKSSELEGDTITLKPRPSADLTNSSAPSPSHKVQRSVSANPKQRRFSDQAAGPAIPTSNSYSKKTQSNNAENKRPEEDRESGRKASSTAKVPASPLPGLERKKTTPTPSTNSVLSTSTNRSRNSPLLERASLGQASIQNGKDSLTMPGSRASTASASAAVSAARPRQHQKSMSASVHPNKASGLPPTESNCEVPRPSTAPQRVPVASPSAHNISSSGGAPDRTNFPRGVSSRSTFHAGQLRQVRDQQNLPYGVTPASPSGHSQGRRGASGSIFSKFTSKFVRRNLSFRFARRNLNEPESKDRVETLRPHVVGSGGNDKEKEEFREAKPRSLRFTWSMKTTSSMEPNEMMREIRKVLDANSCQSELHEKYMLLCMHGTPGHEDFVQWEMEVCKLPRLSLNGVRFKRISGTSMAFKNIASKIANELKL
Chain of Tyrosine-protein kinase JAK1 (Homo sapiens) (P23458 whole entry, the tested form may be a part): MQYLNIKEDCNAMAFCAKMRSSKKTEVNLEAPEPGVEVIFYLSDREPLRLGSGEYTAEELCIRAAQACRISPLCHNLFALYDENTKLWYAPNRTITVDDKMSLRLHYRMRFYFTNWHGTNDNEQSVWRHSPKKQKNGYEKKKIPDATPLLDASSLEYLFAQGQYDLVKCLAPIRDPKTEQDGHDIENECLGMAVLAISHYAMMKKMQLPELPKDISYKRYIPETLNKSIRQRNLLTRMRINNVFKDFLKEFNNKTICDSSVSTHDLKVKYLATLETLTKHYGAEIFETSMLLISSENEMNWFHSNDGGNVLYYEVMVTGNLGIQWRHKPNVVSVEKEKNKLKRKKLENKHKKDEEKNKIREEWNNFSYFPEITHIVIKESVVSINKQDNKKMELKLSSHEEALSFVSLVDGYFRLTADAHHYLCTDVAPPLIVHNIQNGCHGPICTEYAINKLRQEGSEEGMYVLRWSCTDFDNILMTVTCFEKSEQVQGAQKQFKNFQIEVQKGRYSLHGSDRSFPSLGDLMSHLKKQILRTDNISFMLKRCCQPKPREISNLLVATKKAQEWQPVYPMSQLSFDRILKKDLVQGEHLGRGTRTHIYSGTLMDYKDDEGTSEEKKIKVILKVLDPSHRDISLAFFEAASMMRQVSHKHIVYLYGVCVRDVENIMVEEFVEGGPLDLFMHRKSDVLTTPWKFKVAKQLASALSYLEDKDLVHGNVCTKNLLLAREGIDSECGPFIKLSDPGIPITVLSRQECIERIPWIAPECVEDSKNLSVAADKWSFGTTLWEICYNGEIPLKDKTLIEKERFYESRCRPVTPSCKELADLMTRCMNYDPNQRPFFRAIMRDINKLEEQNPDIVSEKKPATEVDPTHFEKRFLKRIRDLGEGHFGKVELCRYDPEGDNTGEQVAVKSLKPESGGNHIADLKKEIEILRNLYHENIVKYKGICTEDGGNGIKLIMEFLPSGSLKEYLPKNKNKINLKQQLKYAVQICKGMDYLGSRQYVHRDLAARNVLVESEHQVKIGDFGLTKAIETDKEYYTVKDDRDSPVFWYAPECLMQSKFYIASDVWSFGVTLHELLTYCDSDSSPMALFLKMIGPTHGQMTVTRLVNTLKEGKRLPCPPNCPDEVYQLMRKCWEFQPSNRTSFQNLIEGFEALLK
Chain of Serine/threonine-protein kinase 4 (Homo sapiens) (Q13043 whole entry, the tested form may be a part): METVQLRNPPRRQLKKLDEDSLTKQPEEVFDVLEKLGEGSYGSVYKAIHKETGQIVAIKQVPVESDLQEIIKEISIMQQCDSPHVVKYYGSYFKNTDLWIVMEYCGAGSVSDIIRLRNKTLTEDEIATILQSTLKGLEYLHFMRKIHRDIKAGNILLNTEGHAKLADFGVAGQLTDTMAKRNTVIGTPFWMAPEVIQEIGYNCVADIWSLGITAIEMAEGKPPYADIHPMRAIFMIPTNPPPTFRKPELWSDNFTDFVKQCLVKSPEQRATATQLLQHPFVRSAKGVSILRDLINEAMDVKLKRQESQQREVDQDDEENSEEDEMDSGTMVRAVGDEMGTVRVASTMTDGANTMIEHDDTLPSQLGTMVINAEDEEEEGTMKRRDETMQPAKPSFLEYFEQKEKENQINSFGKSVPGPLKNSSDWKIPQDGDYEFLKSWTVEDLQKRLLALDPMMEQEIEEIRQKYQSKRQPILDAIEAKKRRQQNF

`CC(C)Nc1sc(C(=O)c2ccc(Cl)s2)c(N)c1C#N` was tested, and the Activity [1] was 82%, the Activity [2] was 100% and the Activity [3] was 100%. The Activity [4] was 68%, the Activity [5] was 72% and the Activity [6] was 96%. It also gave an Activity [7] of 100%, an Activity [8] of 100% and an Activity [9] of 96%. For the same compound, the Activity [10] was 74%, the Activity [11] was 100% and the Activity [12] was 100%. It also gave an Activity [13] of 100%, an Activity [14] of 100% and an Activity [15] of 78%. For the same compound, the Activity [16] was 91%, the Activity [17] was 100% and the Activity [18] was 100%. The Activity [19] was 81%, the Activity [20] was 95% and the Activity [21] was 79%. For the same compound, the Activity [22] was 73%, the Activity [23] was 95% and the Activity [24] was 100%. For the same compound, the Activity [25] was 87%.
